Assay results published in patent US5565433A, “Sulfated β-glycolipid derivatives as cell adhesion inhibitors” (Bristol-Myers Squibb Company, priority 1996, dated 1996).

How the values were obtained:
P-selectin = target: T1, P-selectin (Homo sapiens, UniProt P16109); test: P-Selectin Adhesion Receptor Binding: cell-free ELISA, inhibition of P-selectin binding to immobilized sulfatides; settings: immobilized sulfatide, pH 8.0
T1 construct: consists of the human lectin domain, the EGF domain, and two complement repeats of the human selectins; made in house
T1 sequence (P16109 with tags, fused parts or gaps limits assumed): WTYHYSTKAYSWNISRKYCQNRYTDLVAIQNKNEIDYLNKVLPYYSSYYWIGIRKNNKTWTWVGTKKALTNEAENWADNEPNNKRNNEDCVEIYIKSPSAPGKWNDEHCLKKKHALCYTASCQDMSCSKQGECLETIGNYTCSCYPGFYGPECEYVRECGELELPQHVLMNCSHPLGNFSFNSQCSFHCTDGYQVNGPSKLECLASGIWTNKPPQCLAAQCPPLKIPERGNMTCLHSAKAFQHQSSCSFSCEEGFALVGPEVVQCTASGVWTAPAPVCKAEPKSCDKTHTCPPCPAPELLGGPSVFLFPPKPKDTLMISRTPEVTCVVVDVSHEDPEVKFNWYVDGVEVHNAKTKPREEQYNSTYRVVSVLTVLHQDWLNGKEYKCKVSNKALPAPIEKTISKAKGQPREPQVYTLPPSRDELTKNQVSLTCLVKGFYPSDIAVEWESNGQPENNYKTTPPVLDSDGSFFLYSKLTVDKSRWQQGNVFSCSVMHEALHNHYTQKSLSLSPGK
From the text: 1. P-Selectin Adhesion Receptor Binding
P-selectin (GMP140, granule membrane protein-140, PADGEM, or CD62) is a calcium-dependent transmembrane protein found in alpha granules of endothelial cells and platelets. It is an inducible selectin produced on activated endothelium and platelets which recognize alpha(2-3)sialylated and alpha(1-3)fucosylated lactosaminoglycans which include the sequence, Lewis x (Zhou et al., J. Cell. Biol., (1991) 115 (2): 557-564) and sulfatides (3-sulfated galactosyl ceramides, Aruffo, et al., Cell (1991) 67: 35-44). P-selectin may be responsible for the initial adhesion events between endothelium and neutrophils as evidenced by leukocyte rolling induced by P-selectin in flow cells (Lawrence, M., and T. Springer, Cell (1991) 65: 859-873).
Based on the availability of soluble forms of P-selectin prepared as described by Aruffo, A., et al., Cell, 67, 35-44 (1991), a binding ELISA based assay modified from Foxall, et al., J., Cell Biol., 117, 895-902 (1992) was developed to measure inhibitors of P-selectin binding to immobilized sulfatides. Such inhibitors were tested in the assay described below.
0.1 ml of sulfatide (SIGMA) or lysosulfatide (SIGMA) each at 1 μg/ml in MeOH were added to the wells of a 96-well ELISA plate (ProBind, Falcon) and allowed to dry overnight at room temperature. The next day the antigen coated plates were blocked for 1.5 hours at room temperature with 5% BSA (ICN) in buffer containing 20mM Hepes and 0.15 M NaCl, pH 8.0. Wild type P-selectin and mutants thereof were first mixed with HRP-conjugated goat anti-human IgG (Fisher Scientific), serially diluted and then incubated for 30 minutes at 37° C. in buffer containing 20 mM Hepes, 0.15 M NaCl, 1% BSA and 0.8 mM CaCl2, pH 8.0 prior to addition to the BSA blocked plates. Following the 30 minute preincubation, the fusion protein-HRP conjugate immunocomplexes were incubated on the blocked antigen coated plates for 45 minutes at 37° C. in the presence or absence of the test compounds and then washed to remove any unbound proteins. Bound complexes were detected by addition of substrate buffer (95 mM NaOAc.3H2 O, 5 mM citric acid monohydrate, 1.4 mM urea/H2O2) containing 3, 3', 5, 5' Tetramethylbenzidine (SIGMA). Reactions were stopped by the addition of 3N sulfuric acid and the absorbance read on an ELISA reader at dual wavelengths 450 and 630 nm. The efficacy of these compounds was compared to that of sulfatide (positive control) or to lysosulfatide (negative control). The data is obtained as percent inhibition of specific binding [formula] and a plot of dose vs. percent inhibition of Rg binding is generated in which IC50 (μM) is calculated and reported as cell free data in Table 1.

[1] = system: Reverse Passive Arthus Reaction in Rats; test: Reverse Passive Arthus Reaction in Rats, vascular permeability (VP); type: in vivo; settings: rat, IV, % inhibition at 3 mg single dose, 4 hours
From the text: 3. Reverse Passive Arthus Reaction in Rats
The reverse passive Arthus reaction in rats is a modification of the method by Mulligan et al., as described in J. Clin. Invest., (1991 ) 88:1396-1406. This is an experimental model in which the interaction of antigen-antibody complexes and complement leads to a severe vasculitis that is associated with edema, induration, erythema and hemorrhage. The interaction between the antigen-antibody complexes and complement leads to a localized influx of neutrophils. These neutrophils release a variety of mediators that are associated with tissue damage and vascular permeability. The localized inflammatory reaction is measured using different techniques i.e., vascular permeability and neutrophil influx which is evaluated both biochemically and microscopically.
Male Sprague Dawley specific pathogen-free rats with jugular vein cannulae (280-320 g, Hill Top Labs, Pa.) are used in these studies. Animals are acclimated for at least 1 day and individually housed in stainless steel cages. The dorsal region of the rats is closely clipped 2 days prior to the experiments and divided into 4 sites on each side of the midline. Prior to all injections the rats are sedated with 0.4 ml per 300 gm rat of ketamine/rompun [1000 mg (10 ml) of ketamine HCL is mixed with 40 mg (2.0 ml) Rompun] administered IP and or inhalation anesthesia with metafane (methoxyflurane).
Bovin Serum Albumin (BSA) and rabbit polyclonal IgG rich in anti-BSA are purchased from Sigma Chemical Co. (St. Louis, Mo.). Radiolabelled ^125 I-BSA (spAct 1-5 μCi/μg) is purchased from Dupont NEN (Boston, Mass.).
Each rat is administered intradermal (ID) injection of (0.4 mg, 0.6 mg and 0.8 mg) anti-BSA in a volume of 100 μl per injection in normal saline. The ID injections are randomized near the mid dorsal region on both sides of the back bone. Immediately after the ID injections of the anti-BSA, the rats are administered intravenous (IV) injections of BSA (10 mg in 1.0 ml) in normal saline containing ^125 I labeled BSA (1 μCi/ml BSA or 5.0 μCi/kg body wt) for quantification of dermal vascular injury. Anti-inflammatory agents such as inhibitors of adhesion molecules of the present invention are administered IV at a single dose of 3 mg immediately after BSA. Four (4) hours after the IV injection of BSA, the rats are anesthetized with metafane and 2 to 3 ml of blood is withdrawn via the cannula into an anticoagulant containing (EDTA or Heparin) tube and plasma separated and saved for neutrophil and albumin quantitation. The rats are killed and the skin surrounding the injection site (15 mm diameter) is punched out and weighed. The skin samples and a fixed volume of plasma (0.1 to 1.0 ml) is analyzed in a gamma-counter for ^125 I content. Skin samples from the contralateral side are processed and analyzed for myeloperoxidase activity (MPO) as a measure of neutrophil accumulation. As needed, samples are also processed for histological evaluation of the reacted sites.
Vascular Permeability (VP)
The calculation of the plasma protein exudation into skin is made by determining the radioactivity in the tissue and relating this to the level of radioactive albumin in the blood at the time of sacrifice. […] [formula]
Percent inhibition of the test compound at 3 mg was determined as follows: [formula] Myeloperoxidase (MPO)

IC50 (P-selectin) [µM]	Structure (SMILES)	RPA VP % Inhib. [1] [%]
1	CCCCCCCC/C=C\CCCCCCCCCCCCCC(=O)N[C@@H](CO[C@@H]1O[C@H](COS(=O)(=O)O)[C@H](OC(=O)c2ccccc2)[C@H](OC(=O)c2ccccc2)[C@H]1OS(=O)(=O)O)[C@@H](/C=C/CCCCCCCCCCCCC)OC(=O)c1ccccc1 [Example 7, (2S,3R,4E)-3-Benzoyloxy-1-[3,4-di-O-benzoyl-2,6-di-O-(sodiumoxysulfonyl)-β-D-galactopyranosyloxy]-2-(cis-15-tetracosenoylamino)-4-octadecene]	56
1.7	CCCCCCCCCCCCC/C=C/[C@@H](O)[C@H](CO[C@@H]1O[C@H](COS(=O)(=O)O)[C@H](OS(=O)(=O)O)[C@H](O)[C@H]1O)NC(=O)CCCCCCCCCCCCCCC [Example 2, (2S,3R,4E)-3-Hydroxy-2-hexadecanoylamino-1-[4,6-di-O-(sodiumoxysulfonyl)-β-D-galactopyranosyloxy]-4-octadecene]	63
